pEC50: −log10 of the molar value. Where two headings read alike, the source gives them in different places.
Tests used:
[1] = test system: SK-MEL-2 (NRAS Q61R mutant) melanoma xenograft; experiment: SK-MEL-2 melanoma xenograft, Compound 1 with binimetinib; format: in vivo, mouse
[2] = plasma exposure in SK-MEL-2 xenograft study; settings: mouse, oral
[3] = test system: WM3629 (NRAS mutant, Class III BRAF mutant) melanoma xenograft; experiment: WM3629 melanoma xenograft, compound 1 with binimetinib BID (Example 6); format: in vivo, mouse
[4] = test system: WM3629 (Class III BRAF mutant) melanoma xenograft; experiment: WM3629 melanoma xenograft, Compound 1 with binimetinib QD (Example 3C); format: in vivo, mouse; settings: 10 mg/kg QD single agent, 14 days
Excerpt: Mice were assigned to respective groups based on their starting tumor volume and body weight such that the average values were the same for each treatment group.

in vivo = settings: athymic nude, mouse, plasma, oral
[5] = plasma exposure in WM3629 BID combination study (Example 6); settings: athymic BALB/c nude, mouse, oral, 3 mg/kg
pERK in SK-MEL-30 cells = experiment: cells; settings: Homo sapiens
[6] = test system: A-375 (Class I BRAF V600E) melanoma xenograft; settings: 60 mg/kg QD; 8 of 9 animals
pERK in NCI-H1666 cells = experiment: cells; settings: Homo sapiens
[7] = test system: SK-MEL-2 human melanoma cells; experiment: 7-day CellTiter-Glo growth assay with binimetinib combination and synergy analysis; format: cell-based; settings: SK-MEL-2, 168 h
Description: SK-MEL-2 human melanoma cells were obtained from American Type Culture Collection and maintained in DMEM+10% FBS+1% penicillin/streptomycin. All cells were maintained in a humidified incubator at 37° C. with 5% carbon dioxide (CO2). […] Plates were removed from the incubator and equilibrated at room temperature for 15 minutes. Then, 100 μL of CellTiter-Glo (CTG) reagent was added into each well to be detected (at 1:1 to culture medium). The plates were kept at room temperature for 30 minutes followed by reading on a plate reader. […] Highest single agent (HSA), Bliss, and Loewe synergy models were assessed and utilized to find the most synergistic area score, where scores >10 indicate that the interaction between the two drugs is likely to be synergistic.

pERK in SK-MEL-2 cells = experiment: cells; settings: Homo sapiens
pERK in NCI-H2405 cells = experiment: cells; settings: Homo sapiens, NCI-H2405, 1 h, read-out: pERK EC50
pERK in SK-MEL-28 cells = experiment: cells; settings: Homo sapiens
pERK in A-375 cells = experiment: cells; settings: Homo sapiens, A-375, 1 h, read-out: pERK EC50
pERK in OV-90 cells = experiment: cells; settings: Homo sapiens, OV-90, 1 h, read-out: pERK EC50
pERK in AM-38 cells = experiment: cells; settings: Homo sapiens
pERK in Hs 294T cells = experiment: cells; settings: Homo sapiens
pERK in 8505C cells = experiment: cells; settings: Homo sapiens
pERK in COLO 800 cells = experiment: cells; settings: Homo sapiens
pERK in HCC1195 cells = experiment: cells
[8] = test system: NCI-H2405 (Class II BRAF mutant) NSCLC xenograft
pERK in BxPC-3 cells = experiment: cells; settings: Homo sapiens, BXPC-3, 1 h, read-out: pERK EC50
[9] = test system: A-375, BxPC-3, WM3629 xenografts; settings: doses up to 60 mg/kg per day
pERK in Calu-6 cells = experiment: cells; settings: Homo sapiens
[10] = mouse, in vivo
pERK in NCI-H2087 cells = experiment: cells; settings: Homo sapiens
[11] = mouse, in vivo, po
Description: For routine monitoring, all study animals were monitored for not only tumor growth but also any abnormalities of behavior and appearance such as mobility, food and water consumption, body weight, eye appearance, and any other abnormal observations. Any mortality and/or abnormal clinical signs were recorded. Body weights of all animals were measured and recorded every other day throughout the study. The measurement of tumor size was conducted with calipers and recorded three times during the first week and twice weekly during the second and third weeks. The TV (mm^3) was estimated using the formula: TV=a×b^2/2, where “a” and “b” are long and short diameters of a tumor, respectively.

pERK in IHH-4 cells = experiment: cells
pERK in WM3629 cells = experiment: cells; settings: Homo sapiens, WM3629, 1 h, read-out: pERK EC50
[12] = plasma exposure in mice bearing A-375 tumors; format: in vivo; settings: athymic nude, mouse, 15-60 mg/kg PO QD, free base, 24-hour period following the last dose, read-out: systemic plasma exposures (AUClast)
pERK in HMV-II cells = experiment: cells
pERK in CAL-12T cells = experiment: cells; settings: Homo sapiens, 1 h, read-out: pERK EC50
pERK in MIA PaCa-2 cells = experiment: cells; settings: Homo sapiens, MIA PaCa-2, 1 h, read-out: pERK EC50
[13] = plasma exposure in mice bearing BxPC-3 and WM3629 xenografts; format: in vivo; settings: athymic nude, mouse, po, sulfate salt form, 24-hour period following the last dose, read-out: systemic plasma exposures (AUClast)
pERK in IPC-298 cells = experiment: cells; settings: Homo sapiens
[14] = tolerability / body weight in A-375 xenograft study
Description: Mean tumor volumes and body weights are plotted, respectively; error bars denote standard error of mean. Percent change in tumor volume was calculated using the following formula: (TVf−TV0)/TV0×100%; where TVf=final tumor volume (at end of treatment) and TV0=initial tumor volume (at beginning of treatment).

pERK in DBTRG-05MG cells = experiment: cells; settings: Homo sapiens
pERK in CHL-1 cells = experiment: cells; settings: Homo sapiens, CHL-1, 1 h, read-out: pERK EC50
[15] = 3 mg/kg BID PO 14 days monotherapy

`Cn1cnc2c(F)c(Nc3ccc(Br)cc3F)c(C(=O)NOCCO)cc21` [binimetinib, reference compound] showed a tumor growth inhibition ([1]; 3 mg/kg BID single agent, 28 days) of 23%, an AUC(0-t) ([2]; 3 mg/kg) of 7500 to 10100 ng·h/mL and a TGI [3, 15] of 37%. The ΔT/ΔC [3, 15] was 63%, the “Final Tumor Volume” value ([3]; 3 mg/kg BID PO 14 days monotherapy, mean ± SEM) was 910 ± 69 mm^3 and the “inhibition of tumor growth” value [4] was “did not lead to significant inhibition of tumor growth”. It also gave an AUC(0-t) (in vivo; 10 mg/kg) of 11000 to 26700 ng·h/mL and an AUC(0-t) [5] of 5400 to 5730 ng·h/mL.
With `Cc1ccc(NC(=O)N2CC[C@@H](CC(F)(F)F)C2)cc1-c1cc(N[C@H](C)CO)nc(N2CCOCC2)c1` [Compound 1, (S)-N-(3-(2-(((R)-1-hydroxypropan-2-yl)amino)-6-morpholinopyridin-4-yl)-4-methylphenyl)-3-(2,2,2-trifluoroethyl)pyrrolidine-1-carboxamide] the pEC50 (pERK in SK-MEL-30 cells) was 7.02, the “animals exhibiting tumor regressions” value [6] was 89% and the pEC50 (pERK in NCI-H1666 cells) was 7.48. The pEC50 ([7]; read-out: Compound 1 7-Day CTG EC50, SK-MEL-2, binimetinib 0 nM (single agent, DMSO control)) was 6.79, the pEC50 ([7]; read-out: Compound 1 7-Day CTG EC50, SK-MEL-2, binimetinib 2 nM) was 6.97 and the pEC50 ([7]; read-out: Compound 1 7-Day CTG EC50, SK-MEL-2, binimetinib 7.8 nM) was 6.97. For the same compound, the pEC50 ([7]; read-out: Compound 1 7-Day CTG EC50, SK-MEL-2, binimetinib 31.3 nM) was 7.19, the pEC50 ([7]; read-out: Compound 1 7-Day CTG EC50, SK-MEL-2, binimetinib 125 nM) was 7.41 and the pEC50 ([7]; read-out: Compound 1 7-Day CTG EC50, SK-MEL-2, binimetinib 500 nM) was 7.92. It also gave a pEC50 (pERK in SK-MEL-2 cells) of 6.86, a pEC50 (pERK in NCI-H2405 cells) of 8.00 and a pEC50 (pERK in SK-MEL-28 cells) of 6.97. For the same compound, the pEC50 (pERK in A-375 cells) was 7.17, the pEC50 (pERK in OV-90 cells) was 7.59 and the “average TGI” value ([1]; 10 mg/kg BID 28 days) was 13%. For the same compound, the “average TGI” value ([1]; 30 mg/kg BID 28 days) was 135%, the pEC50 (pERK in AM-38 cells) was 7.38 and the pEC50 (pERK in Hs 294T cells) was 7.11. For the same compound, the AUC(0-t) ([2]; 30 mg/kg) was 29900 to 96100 ng·h/mL, the pEC50 (pERK in 8505C cells) was 7.11 and the pEC50 (pERK in COLO 800 cells) was 7.00. It also gave a pEC50 (pERK in HCC1195 cells) of 7.08, a ΔT/ΔC ([8]; 10 mg/kg BID PO 21 days) of 15% and a ΔT/ΔC ([8]; 15 mg/kg BID PO 21 days) of −7%. The pEC50 (pERK in BxPC-3 cells) was 7.29, the tolerability [9] was “well-tolerated” and the pEC50 (pERK in Calu-6 cells) was 6.70. The ΔT/ΔC ([3]; 1.5 mg/kg BID PO 14 days) was 34%, the ΔT/ΔC [3, 15] was 21% and the “tolerability (on-treatment body weight changes)” value [10] was “well tolerated”. The pEC50 (pERK in NCI-H2087 cells) was 7.02, the tolerability [11] was “well-tolerated” and the pEC50 (pERK in IHH-4 cells) was 7.27. For the same compound, the pEC50 (pERK in WM3629 cells) was 8.06, the AUC(0-t) [12] was 11900 to 156000 ng·h/mL and the pEC50 (pERK in HMV-II cells) was 7.35. It also gave a pEC50 (pERK in CAL-12T cells) of 7.74, a pEC50 (pERK in MIA PaCa-2 cells) of 6.16 and an AUC(0-t) ([13]; dosed orally BID (1.5-10 mg/kg)) of 4030 to 42100 ng·h/mL. For the same compound, the AUC(0-t) ([13]; dosed orally QD (3-20 mg/kg)) was 5200 to 53700 ng·h/mL, the pEC50 (pERK in IPC-298 cells) was 6.57 and the average weight loss ([14]; 60 mg/kg QD) was 5.6%. The “weight loss of one animal during the course of treatment” value ([14]; 60 mg/kg cohort, recovered by end of study) was > 10%, the AUC(0-t) (in vivo; 30 mg/kg) was 31100 to 123000 ng·h/mL and the pEC50 (pERK in DBTRG-05MG cells) was 7.22. For the same compound, the AUC(0-t) [5] was 2530 to 6750 ng·h/mL and the pEC50 (pERK in CHL-1 cells) was 6.24.
